Experimental findings from patent US6482819B1, “2,3-benzodiazepine derivatives” (Gyogyszerkutato Intezet Kft., priority 1997, dated 2002) are described below.

SMILES strings stand for the structures.

Series [1] relates to CD 1 mice. Kind of series: Muscle relaxant activity, inclined screen test. The series is classed as in vivo. Particulars: Mus musculus, ip. As for the experimental part:
(§1) The muscle relaxant activity of the compounds of general formula (I) was measured in the “inclined screen” test of Randall [J. Pharmacol. Exp. Ther. 129, 163 (1960)] and in the rotarod test [J. Am. Pharm. Assoc. 46, 208 (1975)]. The compounds were administered in 3 i. p. doses to ten CD 1 mice in each dose group.

The test system of series [2] is CD 1 mice. Kind of series: Muscle relaxant activity, rotarod test. Type of series: in vivo. The settings on record: Mus musculus, ip. As for the experimental part: as §1
(In general: In the rotarod test animals must keep their balance on a rotating rod.)

Series [3] concerns kainate (5 μM) induced spreading depression, isolated chicken retina. Kind of series: Inhibition of kainate induced spreading depression in the isolated chicken retina preparation. Type of series: cell-based. Particulars: Gallus gallus. An excerpt:
(§2) In the first model the “spreading depression” inducing effect of glutamate agonists was studied, while in the second model the transmembrane ion current induced by the activation of glutamate receptors was directly measured.
(§3) Inhibition of AMPA and Kainate Induced “Spreading depression” in the Isolated Chicken Retina Preparation
(§4) The kainate and AMPA antagonizing effect was studied in vitro in the retinal “spreading depression” model [M. J. Sheardown: Brain Res. 607, 189 (1993)]. The AMPA/kainate antagonists extend the latency of the kainate (5 μM) or AMPA (5 μM) induced development of “spreading depression”.

The subject of series [4] is AMPA (5 μM) induced spreading depression, isolated chicken retina. The experiment in a line: Inhibition of AMPA induced spreading depression in the isolated chicken retina preparation. Type of series: cell-based. Particulars: Gallus gallus.
From the text: as §2, §3, §4

The subject of series [5] is AMPA receptors (kainate induced current, Purkinje cells). The experiment in a line: Inhibition of kainate induced whole cell currents on Purkinje cells of the cerebellum. The series is classed as cell-based. The settings on record: 100 μM kainate, read-out: IC50 against kainate, whole cell currents. The procedure: (§5) Inhibition of AMPA and Kainate Induced Transmembrane Currents
(§6) The effect of the compound of Example 17 on whole cell currents induced by 100 μM kainate or 5 μM AMPA, resp., was studied on Purkinje cells of the cerebellum according to the method of Bleakman et al. [Neuropharmacology 12, 1689 (1996)]. […] In this preparation kainate was also exerting its effect through the activation of AMPA receptors.

For series [6], the system named is AMPA receptors (AMPA induced current, Purkinje cells). Kind of series: Inhibition of AMPA induced whole cell currents on Purkinje cells of the cerebellum. Type of series: cell-based. The procedure: as §5, §6
For series [7], the system named is electroshock convulsions in mice. The experiment in a line: Anticonvulsive effect, electroshock test. The series is classed as in vivo. Particulars: Mus musculus, po, 60 minutes pretreatment. As for the experimental part: (§7) In Table I the anticonvulsive effect of some compounds of the invention in the electroshock test is presented [J. Pharmacol. Exp. Ther. 106, 319 (1952)]. The anticonvulsive effect was also studied in convulsions induced by various chemical agents, e. g. pentetrazole [J. Pharmacol. Exp. Ther 108, 168 (1953)], strychnine [J. Pharmacol. Exp. Ther. 129, 75 (1960)], bemegride, nicotine, bicuculline, 4-aminopyridine and 3-mercaptopropionic acid. The pretreatment period was 60 minutes. The test compounds were administered orally in 3 doses to 10 male CD 1 mice in each dose group.

The subject of series [8] is nicotine induced convulsions in mice. Kind of series: Anticonvulsive effect, nicotine induced convulsions. The series is classed as in vivo. Particulars: Mus musculus, po, 60 minutes pretreatment. The procedure:
as §7

For series [9], the system named is bicuculline induced convulsions in mice. The experiment in a line: Anticonvulsive effect, bicuculline induced convulsions. Particulars: Mus musculus, po, 60 minutes pretreatment. The series is classed as in vivo. The procedure: as §7
Series [10] deals with anesthesized rats, middle cerebral artery occlusion. The experiment in a line: Inhibition of focal ischemia, middle cerebral artery occlusion (MCAO) test. The series is classed as in vivo. The settings on record: for Infarcted area in percent of cerebral hemosphere / Score of infarcted area (size of infarcted area) / Change % of size of infarcted area: MCAO; for Change % of size of infarcted area: versus vehicle. The procedure: The focal ischemia inhibiting effect of the compound of Example 17 was studied on the “middle cerebral artery occlusion” (MCAO) test in anesthesized rats. […] After histological processing the developed infarcted area was measured by a computerized scanner program [R. T. Bartus: Stroke 11, 2265 (1994) and S. G. Sydserff: Brit. J. Pharmacol. 114, 1631 (1995)].

Series [11] has as its system pentetrazole induced convulsions in mice. The experiment in a line: Anticonvulsive effect, pentetrazole induced convulsions. The series is classed as in vivo. Particulars: Mus musculus, po, 60 minutes pretreatment. As for the experimental part: as §7
Series [12] has as its system bemegride induced convulsions in mice. The experiment in a line: Anticonvulsive effect, bemegride induced convulsions. The settings on record: Mus musculus, po, 60 minutes pretreatment. Type of series: in vivo. As for the experimental part: as §7

As usually defined, the ED50 is the dose at which the effect has come halfway, by size or by number of responders. Broadly, the IC50 is the concentration at which inhibition is half-maximal. As usually defined, the melting point is the temperature of the solid-liquid transition.

`NCC(CC(=O)O)c1ccc(Cl)cc1` (stereo not drawn) [Baclofen, reference compound]: the figures for the ED50 in the series with CD 1 mice [1] and in the series on CD 1 mice [2] were 26 mg/kg and 13 mg/kg, respectively.
Regarding `Cc1cn2c(n1)Cc1ccc(Cl)cc1C(c1ccc(N)cc1)=N2` [Example 17], the melting point is 229 to 230 °C. The same molecule showed an IC50 in series [3] of 2.5 µM. In [4], this molecule showed an IC50 of 7.3 µM. Further, in [5], the IC50 is 4.97 µM. Further, the IC50 in [6] (Purkinje cells of the cerebellum, 5 μM AMPA, read-out: IC50 against AMPA, whole cell currents) was determined as 2.02 µM. Further, in series [6] (Purkinje cells, compared by IC50 values), the “Inhibition of ion current induced by AMPA receptor activation relative to GYKI 52466” value is “twice as strongly inhibited”. Moreover, in series [7], the ED50 turned out to be 24 mg/kg. Besides, in series [8], the median effective dose (ED50) stood at 13 mg/kg. Besides, the ED50 in [9] came out at 23 mg/kg. For the same molecule, the ED50 in the series on CD 1 mice [1] was 36 mg/kg. In addition, in the series with CD 1 mice [2], it took a dose of 16 mg/kg to reach the 50% effect level (ED50). In series [10] (6×1 mg/kg i.v.), the “Rate of cerebral cell damage induced by occlusion of the middle cerebral artery” value is given as “significantly reduced”. In addition, in [10] (6 × 1 mg/kg i.v.), the “Infarcted area in percent of cerebral hemosphere” value was determined as 13.4 ± 3.64%, the “Score of infarcted area (size of infarcted area)” value was 16122 ± 4368 and the “Change % of size of infarcted area” value is reported as −60.2%. Moreover, in [10] (6 × 2 mg/kg i.v.), the “Infarcted area in percent of cerebral hemosphere” value is listed as 11.0 ± 1.93%, the “Score of infarcted area (size of infarcted area)” value stood at 13229 ± 2313 and the “Change % of size of infarcted area” value is −67.4%.
Regarding `O=C1NC(=O)C(c2ccccc2)(c2ccccc2)N1` [Phenytoin, reference compound], the ED50 in [7] is 10 mg/kg; in series [11], over 400 mg/kg; in series [12] it was over 200 mg/kg; in series [8], 12 mg/kg.
